Measurements taken from US6376426B1, “Herbicidal 3-(heterocycl-1-yl)-uracils” (BASF Aktiengesellschaft, priority 1999, dated 2002).

Tests used:
Format in all cases: in vivo
[1] = system: Zea mays; experiment: Post-emergence herbicidal test, ZEAMX; details: 21 days after spraying
Procedure: (§1) To evaluate their herbicidal activity, compounds according to the invention are tested using a representative range of plants:
(§2) […] After spraying, the plants are placed on greenhouse benches and are cared for in the usual manner, commensurate with conventional greenhouse practices.
(§3) The herbicidal effects of the test compounds are assessed visually twenty-one days after spraying the foliage and the soil and are recorded on a 0-9 scale. A rating 0 indicates growth as untreated control, a rating 9 indicates death. An increase of 1 unit on the linear scale approximates to a 10% increase in the level of effect.

[2] = system: Echinochloa crus-galli; experiment: Post-emergence herbicidal test, ECHCG; details: 21 days after spraying
Procedure: as §1, §2, §3

[3] = system: Matricaria inodora; experiment: Post-emergence herbicidal test, MATIN; details: POST, 21 days after spraying
Procedure: as §1, §2, §3

[4] = system: Glycine max; experiment: Post-emergence herbicidal test, GLXMA; details: 21 days after spraying
Procedure: as §1, §2, §3

[5] = system: Galium aparine; experiment: Pre-emergence herbicidal test, GALAP; parameters: key to herbicidal effect (0-9 scale) GALAP / herbicidal rating GALAP: A rating 0 indicates growth as untreated control; a rating 9 indicates death; details: PRE, 21 days after spraying
Procedure: as §1
(§4) The pre-emergence tests involve spraying a liquid formulation of the compound onto the soil in which the seeds of the plant species mentioned above has recently been sown.
(§5) The soil used in the tests is a prepared horticultural loam. The formulations used in the tests are prepared from solutions of the test compounds in acetone containing 0.4% by weight of an alkylphenol/ethylene oxide condensate available under the trade mark TRITON X-155. […] In these tests untreated sown soil are used as controls.
as §3

[6] = system: Triticum aestivum; experiment: Post-emergence herbicidal test, TRZAW; parameters: key to herbicidal effect (0-9 scale) TRZAW: A rating 0 indicates growth as untreated control; a rating 9 indicates death; details: POST, 21 days after spraying
Procedure: as §1, §2, §3

[7] = system: Triticum aestivum; experiment: Pre-emergence herbicidal test, TRZAW; parameters: key: A rating 0 indicates growth as untreated control; a rating 9 indicates death; details: 21 days after spraying
Procedure: as §1, §4, §5, §3

[8] = system: Setaria viridis; experiment: Post-emergence herbicidal test, SETVI; parameters: key to herbicidal effect (0-9 scale) SETVI / herbicidal rating SETVI: A rating 0 indicates growth as untreated control; a rating 9 indicates death; details: POST, 21 days after spraying
Procedure: as §1, §2, §3

[9] = system: Abutilon theophrasti; experiment: Post-emergence herbicidal test, ABUTH; parameters: key to herbicidal effect (0-9 scale) ABUTH / herbicidal rating ABUTH: A rating 0 indicates growth as untreated control; a rating 9 indicates death; details: POST, 21 days after spraying
Procedure: as §1, §2, §3

[10] = system: Zea mays; experiment: Pre-emergence herbicidal test, ZEAMX; details: PRE, 21 days after spraying
Procedure: as §1, §4, §5, §3

[11] = system: Hordeum vulgare; experiment: Pre-emergence herbicidal test, HORVW; parameters: key: A rating 0 indicates growth as untreated control; a rating 9 indicates death; details: 21 days after spraying
Procedure: as §1, §4, §5, §3

[12] = system: Stellaria media; experiment: Pre-emergence herbicidal test, STEME; parameters: key to herbicidal effect (0-9 scale) STEME / herbicidal rating STEME: A rating 0 indicates growth as untreated control; a rating 9 indicates death; details: PRE, 21 days after spraying
Procedure: as §1, §4, §5, §3

[13] = system: Hordeum vulgare; experiment: Post-emergence herbicidal test, HORVW; details: 21 days after spraying
Procedure: as §1
These acetone solutions are diluted with water and the resulting formulations applied at dosage levels equivalent to about 1000, 800, 400, 250 or 100 g/ha per hectare of test compound per pot. After spraying, the plants are placed on greenhouse benches and are cared for in the usual manner, commensurate with conventional greenhouse practices.
as §3

[14] = system: Alopecurus myosuroides; experiment: Post-emergence herbicidal test, ALOMY; details: 21 days after spraying
Procedure: as §1, §2, §3

[15] = system: Ipomoea hederacea; experiment: Post-emergence herbicidal test, IPOHE; parameters: key to herbicidal effect (0-9 scale) IPOHE / herbicidal rating IPOHE: A rating 0 indicates growth as untreated control; a rating 9 indicates death; details: POST, 21 days after spraying
Procedure: as §1, §2, §3

[16] = system: Glycine max; experiment: Pre-emergence herbicidal test, GLXMA; parameters: key to herbicidal effect (0-9 scale) GLXMA / herbicidal rating GLXMA: A rating 0 indicates growth as untreated control; a rating 9 indicates death; details: PRE, 21 days after spraying
Procedure: as §1, §4, §5, §3

[17] = system: Stellaria media; experiment: Post-emergence herbicidal test, STEME; parameters: key to herbicidal effect (0-9 scale) STEME / herbicidal rating STEME: A rating 0 indicates growth as untreated control; a rating 9 indicates death; details: POST, 21 days after spraying
Procedure: as §1, §2, §3

[18] = system: Setaria viridis; experiment: Pre-emergence herbicidal test, SETVI; details: PRE, 21 days after spraying
Procedure: as §1, §4, §5, §3

[19] = system: Ipomoea hederacea; experiment: Pre-emergence herbicidal test, IPOHE; details: 21 days after spraying
Procedure: as §1, §4, §5, §3

[20] = system: Galium aparine; experiment: Post-emergence herbicidal test, GALAP; details: POST, 21 days after spraying
Procedure: as §1, §2, §3

[21] = system: Echinochloa crus-galli; experiment: Pre-emergence herbicidal test, ECHCG; details: 21 days after spraying
Procedure: as §1, §4, §5, §3

[22] = system: Matricaria inodora; experiment: Pre-emergence herbicidal test, MATIN; details: PRE, 21 days after spraying
Procedure: as §1, §4, §5, §3

[23] = system: Alopecurus myosuroides; experiment: Pre-emergence herbicidal test, ALOMY; details: PRE, 21 days after spraying
Procedure: as §1, §4, §5, §3

[24] = system: Abutilon theophrasti; experiment: Pre-emergence herbicidal test, ABUTH; parameters: key to herbicidal effect (0-9 scale) ABUTH / herbicidal rating ABUTH: A rating 0 indicates growth as untreated control; a rating 9 indicates death; details: PRE, 21 days after spraying
Procedure: as §1, §4, §5, §3

Cn1c(C(F)(F)F)cc(=O)n(-n2ccc3ccc([N+](=O)[O-])cc32)c1=O [Example 5]
herbicidal effect (0-9 scale) ZEAMX ([1]; 250 g/ha): 2
herbicidal effect (0-9 scale) ZEAMX ([1]; 1000 g/ha): 5
herbicidal effect (0-9 scale) ECHCG ([2]; 250 g/ha): 5
herbicidal effect (0-9 scale) ECHCG ([2]; 1000 g/ha): 8
herbicidal effect (0-9 scale) MATIN ([3]; 250 g/ha): 4
herbicidal effect (0-9 scale) MATIN ([3]; 1000 g/ha): 7
herbicidal effect (0-9 scale) GLXMA ([4]; 250 g/ha): 6
herbicidal effect (0-9 scale) GLXMA ([4]; 1000 g/ha): 8
herbicidal effect (0-9 scale) GALAP ([5]; 250 g/ha): 5
herbicidal effect (0-9 scale) GALAP ([5]; 1000 g/ha): 8
herbicidal effect (0-9 scale) TRZAW ([6]; 250 g/ha): 0
herbicidal effect (0-9 scale) TRZAW ([6]; 1000 g/ha): 2
herbicidal effect (0-9 scale) TRZAW ([7]; 250 g/ha): 2
herbicidal effect (0-9 scale) TRZAW ([7]; 1000 g/ha): 5
herbicidal effect (0-9 scale) SETVI ([8]; 250 g/ha): 7
herbicidal effect (0-9 scale) SETVI ([8]; 1000 g/ha): 8
herbicidal effect (0-9 scale) ABUTH ([9]; 250 g/ha): 8
herbicidal effect (0-9 scale) ABUTH ([9]; 1000 g/ha): 9
herbicidal effect (0-9 scale) ZEAMX ([10]; 250 g/ha): 4
herbicidal effect (0-9 scale) ZEAMX ([10]; 1000 g/ha): 5
herbicidal effect (0-9 scale) HORVW ([11]; 250 g/ha): 4
herbicidal effect (0-9 scale) HORVW ([11]; 1000 g/ha): 6
herbicidal effect (0-9 scale) STEME ([12]; 250 g/ha): 0
herbicidal effect (0-9 scale) STEME ([12]; 1000 g/ha): 2
herbicidal effect (0-9 scale) HORVW ([13]; 250 g/ha): 2
herbicidal effect (0-9 scale) HORVW ([13]; 1000 g/ha): 4
herbicidal effect (0-9 scale) ALOMY ([14]; 250 g/ha): 1
herbicidal effect (0-9 scale) ALOMY ([14]; 1000 g/ha): 4
herbicidal effect (0-9 scale) IPOHE ([15]; 250 g/ha): 6
herbicidal effect (0-9 scale) IPOHE ([15]; 1000 g/ha): 9
herbicidal effect (0-9 scale) GLXMA ([16]; 250 g/ha): 0
herbicidal effect (0-9 scale) GLXMA ([16]; 1000 g/ha): 0
herbicidal effect (0-9 scale) STEME ([17]; 250 g/ha): 0
herbicidal effect (0-9 scale) STEME ([17]; 1000 g/ha): 5
herbicidal effect (0-9 scale) SETVI ([18]; 250 g/ha): 8
herbicidal effect (0-9 scale) SETVI ([18]; 1000 g/ha): 8
herbicidal effect (0-9 scale) IPOHE ([19]; 250 g/ha): 5
herbicidal effect (0-9 scale) IPOHE ([19]; 1000 g/ha): 5
herbicidal effect (0-9 scale) GALAP ([20]; 250 g/ha): 4
herbicidal effect (0-9 scale) GALAP ([20]; 1000 g/ha): 6
herbicidal effect (0-9 scale) ECHCG ([21]; 250 g/ha): 7
herbicidal effect (0-9 scale) ECHCG ([21]; 1000 g/ha): 8
herbicidal effect (0-9 scale) MATIN ([22]; 250 g/ha): 7
herbicidal effect (0-9 scale) MATIN ([22]; 1000 g/ha): 8
herbicidal effect (0-9 scale) ALOMY ([23]; 250 g/ha): 3
herbicidal effect (0-9 scale) ALOMY ([23]; 1000 g/ha): 6
herbicidal effect (0-9 scale) ABUTH ([24]; 250 g/ha): 5
herbicidal effect (0-9 scale) ABUTH ([24]; 1000 g/ha): 9

Cn1c(C(F)(F)F)cc(=O)n(-n2ccc3ccc(Br)cc32)c1=O [Example 6]
herbicidal effect (0-9 scale) ZEAMX ([1]; 100 g/ha): 2
herbicidal effect (0-9 scale) ZEAMX ([1]; 400 g/ha): 3
herbicidal effect (0-9 scale) ECHCG ([2]; 100 g/ha): 4
herbicidal effect (0-9 scale) ECHCG ([2]; 400 g/ha): 8
herbicidal effect (0-9 scale) MATIN ([3]; 100 g/ha): 3
herbicidal effect (0-9 scale) MATIN ([3]; 400 g/ha): 5
herbicidal effect (0-9 scale) GLXMA ([4]; 100 g/ha): 4
herbicidal effect (0-9 scale) GLXMA ([4]; 400 g/ha): 8
herbicidal effect (0-9 scale) GALAP ([5]; 100 g/ha): 2
herbicidal effect (0-9 scale) GALAP ([5]; 400 g/ha): 9
herbicidal effect (0-9 scale) TRZAW ([6]; 100 g/ha): 2
herbicidal effect (0-9 scale) TRZAW ([6]; 400 g/ha): 3
herbicidal effect (0-9 scale) TRZAW ([7]; 100 g/ha): 0
herbicidal effect (0-9 scale) TRZAW ([7]; 400 g/ha): 0
herbicidal effect (0-9 scale) SETVI ([8]; 100 g/ha): 7
herbicidal effect (0-9 scale) SETVI ([8]; 400 g/ha): 9
herbicidal effect (0-9 scale) ABUTH ([9]; 100 g/ha): 9
herbicidal effect (0-9 scale) ABUTH ([9]; 400 g/ha): 9
herbicidal effect (0-9 scale) ZEAMX ([10]; 100 g/ha): 2
herbicidal effect (0-9 scale) ZEAMX ([10]; 400 g/ha): 4
herbicidal effect (0-9 scale) HORVW ([11]; 100 g/ha): 0
herbicidal effect (0-9 scale) HORVW ([11]; 400 g/ha): 1
herbicidal effect (0-9 scale) STEME ([12]; 100 g/ha): 1
herbicidal effect (0-9 scale) STEME ([12]; 400 g/ha): 4
herbicidal effect (0-9 scale) HORVW ([13]; 100 g/ha): 3
herbicidal effect (0-9 scale) HORVW ([13]; 400 g/ha): 3
herbicidal effect (0-9 scale) ALOMY ([14]; 100 g/ha): 2
herbicidal effect (0-9 scale) ALOMY ([14]; 400 g/ha): 4
herbicidal effect (0-9 scale) IPOHE ([15]; 100 g/ha): 8
herbicidal effect (0-9 scale) IPOHE ([15]; 400 g/ha): 9
herbicidal effect (0-9 scale) GLXMA ([16]; 100 g/ha): 0
herbicidal effect (0-9 scale) GLXMA ([16]; 400 g/ha): 0
herbicidal effect (0-9 scale) STEME ([17]; 100 g/ha): 5
herbicidal effect (0-9 scale) STEME ([17]; 400 g/ha): 8
herbicidal effect (0-9 scale) SETVI ([18]; 100 g/ha): 5
herbicidal effect (0-9 scale) SETVI ([18]; 400 g/ha): 8
herbicidal effect (0-9 scale) IPOHE ([19]; 100 g/ha): 1
herbicidal effect (0-9 scale) IPOHE ([19]; 400 g/ha): 2
herbicidal effect (0-9 scale) GALAP ([20]; 100 g/ha): 5
herbicidal effect (0-9 scale) GALAP ([20]; 400 g/ha): 8
herbicidal effect (0-9 scale) ECHCG ([21]; 100 g/ha): 1
herbicidal effect (0-9 scale) ECHCG ([21]; 400 g/ha): 5
herbicidal effect (0-9 scale) MATIN ([22]; 100 g/ha): 1
herbicidal effect (0-9 scale) MATIN ([22]; 400 g/ha): 5
herbicidal effect (0-9 scale) ALOMY ([23]; 100 g/ha): 1
herbicidal effect (0-9 scale) ALOMY ([23]; 400 g/ha): 3
herbicidal effect (0-9 scale) ABUTH ([24]; 100 g/ha): 6
herbicidal effect (0-9 scale) ABUTH ([24]; 400 g/ha): 8
